Laboratory results published in PMC6364133, “Selectivity of Dietary Phenolics for Inhibition of Human Monoamine Oxidases A and B” (BioMed Research International, 2019).
Entries after “also recorded” stand apart in the source; their conditions may differ. Read-outs that look alike come from different tables or passages of the source.

Tests used:
MAO-A in rat brain = conditions: cited from earlier work
[1] = cited from earlier work
MAO-B [2] = conditions: up to 10μM; cited from earlier work
MAO-A [3] = conditions: cited from earlier work
MAO-B [4] = target: T1, MAO-B (Homo sapiens, UniProt P27338); experiment: MAO-B inhibition, kynuramine to 4-hydroxyquinoline, HPLC-fluorescence; assay type: biochemical
T1 construct: purchased BD Biosciences (San Jose, CA) or Corning Discovery Labware (Woburn, MA)
T1 sequence (P27338 1-520): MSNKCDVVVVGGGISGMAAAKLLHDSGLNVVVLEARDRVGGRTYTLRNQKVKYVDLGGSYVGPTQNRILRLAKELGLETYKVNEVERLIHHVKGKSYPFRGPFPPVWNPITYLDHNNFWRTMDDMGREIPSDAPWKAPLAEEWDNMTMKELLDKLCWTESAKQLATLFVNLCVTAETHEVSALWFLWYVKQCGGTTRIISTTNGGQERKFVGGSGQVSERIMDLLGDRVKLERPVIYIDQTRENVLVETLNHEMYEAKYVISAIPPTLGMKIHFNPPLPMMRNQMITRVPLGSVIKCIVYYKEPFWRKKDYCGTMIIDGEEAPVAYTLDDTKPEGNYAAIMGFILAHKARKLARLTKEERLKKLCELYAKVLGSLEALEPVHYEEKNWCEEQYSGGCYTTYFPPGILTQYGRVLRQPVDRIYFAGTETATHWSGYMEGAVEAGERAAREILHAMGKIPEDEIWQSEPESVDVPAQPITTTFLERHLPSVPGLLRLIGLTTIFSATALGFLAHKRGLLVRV

MAO-A [5] = target: T2, MAO-A (Homo sapiens, UniProt P21397); experiment: MAO-A inhibition, kynuramine to 4-hydroxyquinoline, HPLC-fluorescence; assay type: biochemical
T2 construct: purchased BD Biosciences (San Jose, CA) or Corning Discovery Labware (Woburn, MA)
T2 sequence (P21397 1-527): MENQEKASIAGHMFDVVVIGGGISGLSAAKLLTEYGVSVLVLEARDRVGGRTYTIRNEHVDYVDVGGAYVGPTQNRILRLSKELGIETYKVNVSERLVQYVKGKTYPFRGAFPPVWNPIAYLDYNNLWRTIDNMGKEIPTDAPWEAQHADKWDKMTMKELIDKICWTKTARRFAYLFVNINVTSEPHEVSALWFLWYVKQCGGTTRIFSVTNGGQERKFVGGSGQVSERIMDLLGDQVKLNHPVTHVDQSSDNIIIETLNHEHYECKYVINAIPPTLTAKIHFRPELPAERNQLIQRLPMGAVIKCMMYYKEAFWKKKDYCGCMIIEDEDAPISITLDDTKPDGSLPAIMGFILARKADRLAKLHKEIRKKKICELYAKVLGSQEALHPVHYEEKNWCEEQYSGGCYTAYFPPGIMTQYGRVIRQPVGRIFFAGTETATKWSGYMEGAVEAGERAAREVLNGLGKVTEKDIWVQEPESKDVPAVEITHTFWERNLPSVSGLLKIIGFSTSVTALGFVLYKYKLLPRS

[6] = rats, 56 or 168 mg/kg/day by gavage for 14 continuous days; cited from earlier work
[7] = human, 125mg twice daily orally for 6-8 weeks; cited from earlier work
MAO-B [8] = target: T1, MAO-B; experiment: Inhibition mechanism studies (competition, time dependence) with MAO-B; assay type: biochemical
MAO-B [9] = target: T1, MAO-B; conditions: competitive; cited from earlier work
MAO-A [10] = target: T2, MAO-A; conditions: competitive; cited from earlier work
[11] = highest expected luminal concentration: curcumin 140, guaiacol 435, isoeugenol 110, pterostilbene 270, resveratrol 94, zingerone 51 µM, p < 0.05 vs control
[12] = kynuramine 10 µM, MAO-A 0.01 mg/mL, 15 min

Oc1ccc(/C=C/c2cc(O)cc(O)c2)cc1 [resveratrol]
IC50 (MAO-A in rat brain): 2 µM
Ki (MAO-A in rat brain): 2.5 µM
plasma protein binding [1]: 91%
MAO-B inhibition (MAO-B [2]): did not significantly inhibit
MAO-A inhibition (MAO-A [3]): inhibitor of MAO-A
Ki (MAO-B [4]; from IC50 assuming competitive inhibition): 10.2 µM

COc1cc(/C=C/c2ccc(O)cc2)cc(OC)c1 [pterostilbene]
inhibition of MAO-A activity in screening (MAO-A [5]; [11]): significantly inhibited
IC50 (MAO-A [5]; [12]): 13.4 ± 1.5 µM
MAO-A Hill coefficient (MAO-A [5]; [12]): 1.7 ± 0.3
Selectivity Index (MAO-A [5]; ratio of MAO-B IC50/MAO-A IC50): 0.0103
oral bioavailability [6]: 80%
inhibition of MAO-B activity in screening (MAO-B [4]; [11]): significantly inhibited
IC50 (MAO-B [4]; kynuramine 10 µM, MAO-B 0.01 mg/mL, 15 min): 0.138 ± 0.013 µM
plasma low-density lipoproteins [7]: slightly raised
systolic and diastolic blood pressure [7]: reduces
mechanism of MAO-B inhibition (MAO-B [8]): competitive time-independent; also recorded: competitive, time-independent
time profile of MAO-B activity on preincubation (MAO-B [8]; 0.7 μM, preincubation 0-60 min): not significantly different from the control
Vmax of kynuramine with MAO-B in presence of inhibitor (MAO-B [8]; pterostilbene 0.45 μM, kynuramine 2-450 μM): 3.28 ± 0.19 nmol/min/mg protein

C=CCc1ccc(O)c(OC)c1 [eugenol]
Ki (MAO-B [9]): 211 µM
Ki (MAO-A [10]): 26 µM
